In patent US11008325B2, “Inhibitors of cancer invasion, attachment, and/or metastasis” (VIRGINIA COMMONWEALTH UNIVERSITY, priority 2016, dated 2021):
Entries after “also recorded” stand apart in the source; their conditions may differ.

Key:
GBM6 cells = experiment: orthotopic GBM6 xenograft model; format: in vivo, mice
Protocol: FIGS. 13A-13E. Effect of PDZ1i on survival in an in vivo model of glioma. GBM6 cells were pretreated for 2 hrs prior to intracranial injection with vehicle (DMSO) or PDZ1i and after 7 days, brain tissue was isolated and sectioned at injection site. FIG. 13A, brain tissue at site of injection of DMSO treated cells; FIG. 13B, brain tissue are site of injection of PDZ1i treated cells. 7 days after tumor implantation, mice received either vehicle or PDZ1i (30 mg/kg) three times per week for 3 weeks. Brain tissue was isolated and analyzed via H&E stain, FIG. 13C, brain tissue from mice treated with vehicle; FIG. 13D, brain tissue from mice treated with PDZ1i. FIG. 13E, Kaplan-Myer curves of these groups based on animal survival. **p<0.01.
PDZ1i is effective in reducing tumor invasion in an animal model of GBM. To test the efficacy of PDZ1i, we used an orthotopic xenograft model with GBM6 cells that were pretreated with either DMSO or PDZ1i and injected intracranially to form tumors. Seven d post injection tumor and brain tissue were isolated for sectioning. […] Separately, untreated cells were injected and tumors established, then mice were treated IP with either DMSO or PDZ1i (30 mg/kg) three times per wk for two wk. […]

[1] = molecular target: MDA-9/Syntenin PDZ2 only domain (Homo sapiens, UniProt O00560); experiment: NMR [15N,1H] HSQC binding, counter domain; settings: up to 100 μM compound, 20 μM protein
Sequence of MDA-9/Syntenin PDZ2 only domain (O00560 198-273 limits assumed): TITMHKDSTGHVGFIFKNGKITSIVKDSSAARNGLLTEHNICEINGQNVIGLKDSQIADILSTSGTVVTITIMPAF
Protocol: FIG. 52. Left panel, Docked structure of compound 113B7 on the surface of MDA-9/Syntenin. The docked structure is supported by NMR chemical shift mapping data. The titration (see later in FIG. 55 for chemical shift mapping and titration) allows for the calculation of an upper limit for the dissociation constant of the complex, Kd<10 μM. […] The [^15N,^1FI]-HSQC spectra of MDA-9/Syntenin PDZ2 only domain are reported in the top right panel (apo at 20 μM; in presence of 100 μM 113B7). In the bottom right panel can be seen the spectra of the PDZ domain from X11/mint scaffold protein (33% identity with PDZ1) are reported in absence (20 μM protein) and in presence of 100 μM 113B7.
Based on these studies and NMR guided initial docking calculations, >50 bi-dentate compounds were synthesized and tested, leading to compound 113B7 (FIG. 52). […] Moreover, as a way to further address specificity of our ligands, we also tested the most promising compounds against two closely related domains to the PDZs of MDA-9/Syntenin, such as the PDZ tandem protein Harmonin (36% identity to PDZ2 of MDA-9/Syntenin and 31% to PDZ1 of MDA-9/syntenin) or PDZ domain from X11/mint scaffold protein (33% identity with PDZ1), and no significant binding to these counter-screen proteins was observed (FIG. 52).

Which results are given for Cc1cc(NC(=O)c2nc3[nH]c4c(c(=O)n3n2)CCC4)c(C)cc1NC(=O)CCc1nnc(-c2ccccc2)o1 [113B7, N-(2,5-dimethyl-4-(3-(5-phenyl-1,3,4-oxadiazol-2-yl)propanamido)phenyl)-8-oxo-5,6,7,8-tetrahydro-4H-cyclopenta[d][1,2,4]triazolo[1,5-a]pyrimidine-2-carboxamide]?
survival (GBM6 cells; PDZ1i 30 mg/kg IP three times per wk): significantly increased; tumor size and demarcation (GBM6 cells; cells pretreated with PDZ1i, 7 d post intracranial injection): noticeably smaller and more demarcated neoplasms; binding to PDZ2 domain [1]: does not bind appreciably; also recorded: does not appreciably bind; also recorded: do not significantly bind
